# From US8628963B2, “Medium composition comprising neuropeptide Y for the generation, maintenance, prolonged undifferentiated growth of pluripotent stem cells and method of culturing pluripotent stem cell using the same” (Korea Research Institute of Bioscience and Biotechnology, priority 2009, dated 2014)
# “Also recorded” adds a separate entry of the source.
# Assays:
# [1] = test system: human embryonic stem cells; assay: Feeder-free culture: maintenance of undifferentiated state (morphology, ALP staining, hESC markers); assay type: cell-based; details: 3 μM antagonist in NPY medium
# Experimental: Each experiment was carried out at least three times. […] Error bars represent standard error of the mean (n=3).
# phospho-AKT in H9 cells = assay: Western blot of NPY signalling: AKT phosphorylation; assay type: cell-based, human; details: 1 μM NPY
# Experimental: (§1) The membranes were probed with the indicated antibodies, and β-actin was used as a loading control. For protein quantification, the blots were scanned, and the bands were quantified using densitometry (a-c, lower panels). The data are presented as the mean±SE (n=3). **p<0.01, *p<0.05, by t-test.
# (§2) The supernatant was re-centrifuged for 10 min, and protein concentrations determined using the BCA protein assay kit (Pierce, Rockford, Ill.). Proteins (20 μg) were fractionated by SDS polyacrylamide gel electrophoresis (PAGE), and electrotransferred to polyvinylidene fluoride (PVDF) membranes (Millipore Corp, Bedford, Mass.). Membranes were blocked in PBS containing 0.1% Tween-20 and 5% non-fat milk for 2 hrs at room temperature, and probed with primary antibodies diluted in PBS/0.2% BSA for 1 hr. After washing, membranes were incubation with the corresponding secondary anti-rabbit HRP-conjugated or anti-mouse HRP-conjugated antibodies (Amersham, Arlington Heights, Ill.), and the bands were visualized using the ECL Advance kit (Amersham). Bands were analyzed for density with Image Gauge software (Fuji Photo Film GMBH, D) and normalized to loading control (β-actin) bands. All experiments were performed in triplicate. Error bars represent standard error of the mean (n=3).
# [2] = test system: phospho-ERK1/2 in H9 cells; assay: Western blot of NPY signalling: ERK1/2 phosphorylation; assay type: cell-based, human; details: 30 min pretreatment with receptor antagonist (3 μM in FIG. 11 legend), 1 μM NPY
# Experimental: as §1, §2
# phospho-CREB in H9 cells = assay: Western blot / immunohistochemistry of NPY signalling: CREB phosphorylation; assay type: cell-based, human; details: 1 μM NPY; for Effect on NPY-mediated CREB phosphorylation: pretreatment with kinase inhibitor, inhibition appeared incomplete
# Experimental: as §1
# For immunostaining, cells were plated on matrigel-coated 4-well Lab-Tek chamber slides (Nunc, Naperville, Ill.) and cultured for 5 days under described conditions. […] Cells were incubated for 2 hrs at 4° C. with respective primary antibodies diluted in PBS/0.2% BSA. After washing, cells were incubated with FITC- or Alexa 594-conjugated secondary antibodies (Invitrogen) in PBS/0.2% BSA for 1 hr at room temperature. Cells were counterstained using 10 μg/ml DAPI (4′,6-diamidino-2-phenylindole). Chamber slides were analyzed by an Olympus microscope or Axiovert 200M microscope (Carl Zeiss, Gottingen, Germany).
# as §2
# H9 hESCs = assay: BrdU incorporation (hESC proliferation); assay type: cell-based, human; details: inhibitor 10 μM (FIG. 4b), NPY medium
# Experimental: The proliferation rate of H9 hESCs cultured using the indicated media was measured using BrdU incorporation. […] Upper panels: representative images of BrdU+ cells. Bar=100 μm. Lower panels: Quantification of BrdU+ cells. The relative number of BrdU+ cells per field of vision was quantified and is presented as the percentage of the total number of cells counted.
# Human embryonic stem cells were grown on matrigel-coated 4-well LabTec chamber slides for 4 days for the 5-bromo-2-deoxyuridine (BrdU; BD Pharmingen, San Diego) incorporation assays.
# For BrdU incorporation, the cells were incubated in the presence of 30 μM BrdU for 1 hr at 37° C. […] After washing, the cells were incubated with the anti-BrdU antibody in PBS supplemented with 3% BSA for 1 hr, and then incubated with a FITC-conjugated secondary antibody (Invitrogen) for 30 min. The nuclei were stained with DAPI and examined using an Olympus microscope. The mean number of BrdU+ cells per field of vision was determined. At least four fields of vision per coverslip were counted.
# H9 cells = assay: Growth efficiency test (cell number); assay type: cell-based, human; details: TGFβ addition (1 ng/ml) to N2/B27 medium with NPY, compared with MEF-CM and UM supplemented with NPY
# Experimental: Comparison of the growth efficiency of H9 cells cultured using the indicated media for 6 days by measuring the cell number as described in Materials and Methods. The data are presented as the mean±SE (n=3). **p<0.01, *p<0.02, by t-test.
# hESC clumps (100×100 μm; approximately 70-90 cells per clump) was seeded evenly on a 35 mm culture dish coated with Matrigel in a final volume of 2 ml. The cells were plated to a cell density of approximately 5×10^5 cells per 35 mm culture dish. The plated cells were allowed to grow for 6 days under described culture conditions. To determine the number of cells, the cells were washed with PBS and trypsinized. The cell suspension was mixed with a 0.4% (wt/vol) trypan blue solution, and the number of live cells was determined using a hemocytometer. Each trial was performed in triplicate.
compound,measurement,setting,value
NC(N)=NCCC[C@@H](NC(=O)C(c1ccccc1)c1ccccc1)C(=O)NCc1ccc(O)cc1 [BIBP3226],"Maintenance of undifferentiated state in NPY medium in presence of antagonist (morphology; ALP, OCT4, SOX2, hTERT, TDGF)",[1],fail to maintain in an undifferentiated state; also recorded: loss of undifferentiated human embryonic stem cells
same,Effect on NPY-mediated AKT activation,phospho-AKT in H9 cells; 30 min pretreatment with receptor antagonist (3 μM in FIG. 11 legend),significantly reduced
same,Effect on NPY-mediated ERK activation,[2],significantly reduced
same,Effect on NPY-mediated up-regulation of p-CREB,phospho-CREB in H9 cells; pretreatment with receptor antagonist,partially blocked
O=S(=O)(NCCNC/C=C/c1ccc(Br)cc1)c1cccc2cnccc12 [H89],Effect on NPY-stimulated BrdU incorporation,H9 hESCs,potent in suppressing NPY-stimulated BrdU incorporation
same,Effect on NPY-mediated CREB phosphorylation,phospho-CREB in H9 cells,blocked
TGFβ,Effect on growth efficiency (cell number),H9 cells,did not affect the growth efficiency
N#CC(=C(/N)Sc1ccccc1N)/C(C#N)=C(\N)Sc1ccccc1N [U0126],Effect on NPY-stimulated BrdU incorporation,H9 hESCs,potent in suppressing NPY-stimulated BrdU incorporation
same,Effect on NPY-mediated AKT activation,phospho-AKT in H9 cells; pretreatment with kinase inhibitor (10 μM in FIG. 12 legend),inhibited
same,Effect on NPY-mediated CREB phosphorylation,phospho-CREB in H9 cells,blocked
